Measured values from patent US11555006B2, “Elucidation of novel 13-series resolvins that increase with atorvastatin and clear infections” (The Brigham and Women's Hospital, Inc., priority 2015, dated 2023).

Tests used:
human macrophages [1] = assay: Human macrophage phagocytosis, ROS and efferocytosis; type: cell-based; conditions: for In vitro: human macrophage efferocytosis of apoptotic neutrophils: summary table of bioactions; for In vitro: human macrophage and neutrophil intra-phagolysosomal ROS production / In vitro: human macrophage and neutrophil phagocytosis of E. coli: summary table, macrophages and neutrophils
Procedure: Macrophages were prepared from peripheral blood mononuclear cells (PBMC) purchased from Children's Hospital Blood Bank, Boston, and phagocytosis was assessed as in^31. Briefly, macrophages (5×10^4 cells/well) were incubated with RvT1 (1 pM-10 nM), 1:1 mixture RvT2 and RvT3 (1 pM-10 nM), RvT4 (1 pM-10 nM) or vehicle (0.1% EtOH in DPBS) for 15 min at 37° C., then fluorescent labeled apoptotic cells were added and cells incubated 45 min at 37° C. Extracellular fluorescence was quenched using Trypan blue (1:15 dilution) and phagocytosis assessed using an M3 SpectraMax plate reader (Molecular Devices). In select experiments, macrophages (prepared as detailed above, 5×10^4 cells/well) or neutrophils (1×10^5 cells/well), obtained from human healthy volunteers and isolated as in ^31 in accordance with Partners Human Research Committee Protocol (number 1999P001297), were incubated with H2DCFDA (5 μM, 30 min, 37° C.), excess dye was washed off and cells incubated with RvT1 (1 pM-10 nM), 1:1 mixture RvT2 and RvT3 (1 pM-10 nM), RvT4 (1 pM-10 nM) or vehicle (0.1% EtOH in DPBS, 15 min, 37° C.), then incubated with E. coli (1:50 leukocytes to E. coli, 45 min, 37° C.). Intracellular reactive oxygen species were determined by measuring fluorescence using an M3 SpectraMax plate reader. To assess bacterial phagocytosis, macrophages (5×10^4 cells/well) or neutrophils (1×10^5 cells/well) were incubated with RvT1 (1 pM-10 nM), 1:1 mixture RvT2 and RvT3 (1 pM-10 nM), RvT4 (1 pM-10 nM) or vehicle (0.1% EtOH in DPBS, 15 min, 37° C.), then incubated with BacLight Green (Molecular Probes) labeled E. coli (1:50 leukocytes to E. coli, 45 min, 37° C.). Extracellular fluorescence was then quenched using Trypan blue (1:15 dilution), and phagocytosis was assessed using an M3 SpectraMax plate reader.

human macrophages [2] = assay: Human macrophage caspase 1, IL-1β and lactate dehydrogenase; type: cell-based; conditions: for In vitro: E. coli induced inflammasome components in human macrophages / In vitro: E. coli induced macrophage pyroptosis: summary table of bioactions
Procedure: Human macrophages (1.5×10^4 cells/well) were incubated with RvT1 (10 pM-10 nM), 1:1 mixture RvT2 and RvT3 (10 pM-10 nM), RvT4 (10 pM-10 nM) or vehicle (0.1% EtOH in DPBS, 15 min, 37° C.), then E. coli (7.5×10^5 cells/well, in DPBS, 16 h, 37° C.). Caspase 1 levels were assessed in macrophages by flow cytometry after cell fixing and permeabilization, staining with an anti-caspase 1 (Abcam; 4° C., 30 min) and anti-rabbit-Alexa 488 conjugated antibody (Molecular Probes; 4° C., 30 min). IL-1β levels were determined in cell-free supernatants using an anti-human IL-1β ELISA (eBiosciences) following manufacturer's instructions. Lactate dehydrogenase activity was measured in cell-free supernatants assessing the formation of NADH from NAD+ using a Lactate Dehydrogenase Assay kit (Sigma) following manufacturer's instructions.

[3] = tested on: E. coli infections in mice; assay: E. coli peritonitis in mice; type: in vivo; conditions: for In vivo: circulating platelet-leukocyte aggregates / In vivo: exudate pro-inflammatory eicosanoid levels during infections / In vivo: infection induced hypothermia / In vivo: macrophage efferocytosis of apoptotic neutrophils / In vivo: murine leukocyte phagocytosis of E. coli / In vivo: neutrophil recruitment during infections / In vivo: protective actions of atorvastatin in infections / In vivo: pyroptosis: summary table of bioactions
Procedure: All animal experiments were conducted in accordance with the Harvard Medical Area Standing Committee on Animals (protocol no. 02570). Mice (male FvB, 6-8 weeks old, Charles River, fed lab diet containing essential fatty acids as from supplier) were anesthetized with isoflurane and microbial peritonitis initiated. Briefly, test compounds or vehicle were injected i.p. or i.v. 5 min prior to live E. coli (serotype 06:K2:H1; 1×10^5 or 1×10^7 CFU/mouse). At designated time intervals mice were harvested, blood was collected via cardiac puncture in heparin, and peritoneal exudates were collected in 4 ml of PBS. The cellular composition in the exudates was determined using Turks solution and light microscopy, and by flow cytometry. For flow cytometry, exudate cells were incubated with anti-mouse CD16/CD32 (eBiosciences, 20 min, 4° C., in PBS containing 5% fetal calf serum-staining solution), followed by incubation with FITC-conjugated anti-mouse Ly6G antibody (clone: 1A8, eBiosciences), PE-conjugated anti-mouse F4/80 antibody (clone:BM8, eBiosciences) and PerCP-Cy5.5-conjugated anti-mouse CD11b antibody (clone:M1/70, eBiosciences) for 30 min (4° C., in staining solution). To assess bacterial phagocytosis in peritoneal exudate leukocytes, exudate cells were incubated with PerCP-Cy5.5-conjugated anti-mouse CD11b antibody (30 min, 4° C., in staining solution), then fixed and permeabilized using BD Perm/Wash™ Buffer (BD Biosciences) following manufacturer's instructions and incubated with FITC-conjugated anti-E. coli antibody (GenTex, 30 min, 4° C., in BD Perm/Wash™ Buffer). Efferocytosis in infectious exudates was assessed by incubating exudate leukocytes with PE-conjugated anti-mouse F4/80 antibody (30 min, 4° C., in staining solution), then fixed and permeabilized using BD Perm/Wash™ Buffer (BD Biosciences) and incubated with FITC-conjugated anti-mouse Ly6G antibody (30 min, 4° C., in BD Perm/Wash™ Buffer). Body temperatures were assessed using an Infrared thermometer (Fluke). Bacterial counts in peripheral blood and inflammatory exudates were determined by overnight cultures (37° C.) of serially diluted samples on LB agar plates. Caspase 1 levels were assessed by incubation of exudate cells with PerCP-Cy5.5-conjugated anti-mouse CD11b antibody (30 min, 4° C., in staining solution), then fixed and permeabilized using BD Perm/Wash™ Buffer (BD Biosciences), incubated with anti-caspase 1 antibody (Abcam, 30 min, 4° C., in BD Perm/Wash™ Buffer) followed by anti-rabbit Alexa 488 conjugated antibody (Life Technologies, 30 min, 4° C., in BD Perm/Wash™ Buffer). IL-1β levels were determined in cell-free supernatants using an anti-mouse IL-1β ELISA (Abcam) following manufacturer's instructions. Lactate dehydrogenase activity was measured in cell-free supernatants assessing the formation of NADH from NAD+ using a Lactate Dehydrogenase Assay kit (Sigma) following manufacturer's instructions.
In select experiments resolution indices were calculated as in ^27. Ψmax, maximal PMN numbers in exudates; Tmax, time point when PMN numbers reach maximum; R50, 50% of maximal PMN numbers; T50, time point when PMN numbers reduce to 50% of maximum; Ri (resolution interval), T50-Tmax, time period when 50% PMN are lost from the exudates. To assess the proresolving actions of the test products, these were administered 12 h after E. coli (10^5 CFU) inoculation, and resolution indices were assessed.
For some experiments, mice were administered via i.p. injection RvT1, RvT2, RvT3 and RvT4 (that were isolated as detailed below and combined as a mixture at a ratio of 2:1:1:8 respectively) 2 h after E. coli inoculation. Blood and lungs were harvested 6 h after E. Coli inoculation. Blood was employed to determine peripheral blood eicosanoid levels as detailed below.

nitric oxide synthase = assay: L-NAME and atorvastatin in E. coli inoculated mice, plasma RvT; type: in vivo
Procedure: In a separate set of experiments, mice were inoculated with E. coli; after 60 min they were given L-NAME (24 mg/kg) and 5 min later atorvastatin (5 μg) via i.v. injection. Plasma was obtained after 5 h via cardiac puncture and LM levels were investigated by lipid mediator metabololipidomics. For all animal experiments mice were randomized to vehicle or treatment groups without blinding.

human neutrophils = assay: Human neutrophil phagocytosis and ROS; type: cell-based; conditions: 1 pM-1.0 nM, n=4 donors
Procedure: Macrophages were prepared from peripheral blood mononuclear cells (PBMC) purchased from Children's Hospital Blood Bank, Boston, and phagocytosis was assessed as in^31. Briefly, macrophages (5×10^4 cells/well) were incubated with RvT1 (1 pM-10 nM), 1:1 mixture RvT2 and RvT3 (1 pM-10 nM), RvT4 (1 pM-10 nM) or vehicle (0.1% EtOH in DPBS) for 15 min at 37° C., then fluorescent labeled apoptotic cells were added and cells incubated 45 min at 37° C. Extracellular fluorescence was quenched using Trypan blue (1:15 dilution) and phagocytosis assessed using an M3 SpectraMax plate reader (Molecular Devices). […] Intracellular reactive oxygen species were determined by measuring fluorescence using an M3 SpectraMax plate reader. […] Extracellular fluorescence was then quenched using Trypan blue (1:15 dilution), and phagocytosis was assessed using an M3 SpectraMax plate reader.

[4] = tested on: human neutrophil-endothelial cell co-incubations; assay: Lipid mediator levels in human endothelial cell incubations and neutrophil-endothelial cell co-incubations; type: cell-based; conditions: atorvastatin 0.03-30 μM
Procedure: Prior to sample extraction, deuterated internal standards (d4-PGE2, d5-LXA4, d4-RvD2, d4-LTB4 and d8-5S-HETE) representing regions of interest in the chromatographic analysis (500 pg each) were added to facilitate quantification. Extracted samples were analyzed by a LC-MS-MS system, Qtrap 6500 (AB Sciex) equipped with a Shimadzu SIL-20AC autoinjector and LC-20AD binary pump (Shimadzu Corp.). An Agilent Eclipse Plus C18 column (100×4.6 mm×1.8 μm) was used with a gradient of methanol/water/acetic acid of 55:45:0.01 (vol:vol:vol) that was ramped to 85:15:0.01 (vol:vol:vol) over 10 min and then to 98:2:0.01 (vol:vol:vol) for the next 8 min. This was subsequently maintained at 98:2:0.01 (vol:vol:vol) for 2 min. The flow rate was maintained at 0.4 ml/min. To monitor and quantify the levels of lipid mediators, a multiple reaction monitoring (MRM) method was developed with signature ion fragments (m/z) for each molecule monitoring the parent ion (Q1) and a characteristic daughter ion (Q3). […] Calibration curves were determined using a mixture of lipid mediators obtained via total organic synthesis, where these lipid mediators were not available (RvT1, RvT2, RvT3, RvT4 and 13-HDPA); known mediators with similar chromatographic properties (RvD2 for RvT1, RvD1 for RvT2 and RvT3; RvD5 for RvT4; 13-HDHA for 13-HDPA) were used. […]

Compound	In vitro: human macrophage efferocytosis of apoptotic neutrophils (human macrophages [1])	In vitro: human macrophage and neutrophil intra-phagolysosomal ROS production (human macrophages [1])	In vitro: human macrophage and neutrophil phagocytosis of E. coli (human macrophages [1])	In vitro: E. coli induced inflammasome components in human macrophages (human macrophages [2])	In vitro: E. coli induced macrophage pyroptosis (human macrophages [2])	In vivo: circulating platelet-leukocyte aggregates [3]	In vivo: exudate pro-inflammatory eicosanoid levels during infections [3]	In vivo: infection induced hypothermia [3]	In vivo: macrophage efferocytosis of apoptotic neutrophils [3]	In vivo: murine leukocyte phagocytosis of E. coli [3]	In vivo: neutrophil recruitment during infections [3]	In vivo: protective actions of atorvastatin in infections [3]	In vivo: pyroptosis [3]	further results
7,8,13-trihydroxy-docosapentaenoic [RvT2]	Stimulates human	Stimulates human	Stimulates human	Reduces E. coli induced	Reduces E. coli induced	Reduces circulating platelet -	Reduces exudate pro-	Protects against infection	Stimulates macrophage	Stimulates murine leukocyte	Limits neutrophil recruitment	Elaborates the protective	Reduces pyroptosis	
COC(=O)[C@@H](N)CCCNC(=N)N[N+](=O)[O-] [L-NAME, L-NG-Nitroarginine Methyl Ester]														atorvastatin-mediated increases in plasma RvT (nitric oxide synthase; L-NAME 24 mg/kg prior to atorvastatin 5 μg/mouse i.v., E. coli 1×10^5 CFU/mouse): significantly reversed; neutrophil recruitment to the peritoneum (nitric oxide synthase; L-NAME prior to atorvastatin during mouse infections): increased
CCC(O)/C=C/C=C\C=C\C(O)C/C=C\C=C\C(O)CCCCCC(=O)O (centres unmarked) [RvT1, 7,13,20-trihydroxy-docosapentaenoic acid]	Stimulates human	Stimulates human	Stimulates human	Reduces E. coli induced	Reduces E. coli induced	Reduces circulating platelet-	Reduces exudate pro-	Protects against infection	Stimulates macrophage	Stimulates murine leukocyte	Limits neutrophil recruitment	Elaborates the protective	Reduces pyroptosis	E. coli phagocytosis in human macrophages (human macrophages [1]; 1 pM-10 nM): dose-dependently increased; efferocytosis of apoptotic neutrophils by human macrophages (human macrophages [1]; 1 pM-10 nM): dose-dependently increased; intracellular reactive oxygen species (ROS) in human macrophages (human macrophages [1]; 1 pM-10 nM): dose-dependently increased; increase in E. coli phagocytosis, human neutrophils (human neutrophils): 20-55%; increase in intracellular ROS, human neutrophils (human neutrophils): 20-40%; IL-1β expression, human macrophages (human macrophages [2]; 10 pM-10 nM, E. coli 16 h): decreasing; caspase-1 expression, human macrophages (human macrophages [2]; 10 pM-10 nM, E. coli 16 h): decreasing; extracellular lactate dehydrogenase activity, human macrophages (human macrophages [2]; 10 pM-10 nM, E. coli 16 h): decreasing
CCC=CCC=CC=CC(O)C(O)C=CC=CC(O)CCCCCC(=O)O (centres unmarked) [RvT3, 7,12,13-trihydroxy-docosapentaenoic acid]	Stimulates human	Stimulates human	Stimulates human	Reduces E. coli induced	Reduces E. coli induced	Reduces circulating platelet-	Reduces exudate pro-	Protects against infection	Stimulates macrophage	Stimulates murine leukocyte	Limits neutrophil	Elaborates the protective	Reduces pyroptosis	
CC/C=C\C/C=C\C=C\C(O)C/C=C\C=C\C(O)CCCCCC(=O)O (centres unmarked) [RvT4, 7,13-dihydroxy-docosapentaenoic acid]	Stimulates human	Stimulates human	Stimulates human	Reduces E. coli induced	Reduces E. coli induced	Reduces circulating platelet-	Reduces exudate pro-	Protects against infection	Stimulates macrophage	Stimulates murine leukocyte	Limits neutrophil recruitment	Elaborates the protective	Reduces pyroptosis	
CC(C)c1c(C(=O)Nc2ccccc2)c(-c2ccccc2)c(-c2ccc(F)cc2)n1CC[C@@H](O)C[C@@H](O)CC(=O)O [atorvastatin]														RvT in neutrophil-endothelial cell co-cultures [4]: dose-dependent increases; PGI2 and 15-deoxy-Δ-12,14-PGJ2 ([3]; treatment 2 h after E. coli, blood 6 h after E. coli): increases; endothelin-1 and plasminogen activator inhibitor-1 ([3]; treatment 2 h after E. coli, lung mRNA 6 h after E. coli): reduced
